Values joined by “and” are separate entries in the source; they are usually repeats but may differ in a detail not shown here. Equal values may be shown once.
Assays:
HCV pseudoparticles = experiment: HCV pseudoparticle (HCVpp) entry assay in Huh7 hepatoma cells, luciferase readout; assay type: cell-based, hepatitis C virus; details: for luciferase units, HCV entry / viral entry as a percentage of the uninhibited control: duplicates; for % of control at ~30 uM: percentage of hepatitis C virus cellular entry at 30 μM peptide vs uninhibited control; for viral entry as a percentage of the uninhibited control: HCV entry; for activity compared to the wild type 13-mer peptide: HCVpp entry inhibition, in words
In short: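 Huh7 cells were pre-treated with peptide for 1 h at 37 °C before exposure to HCV E1/E2-pseudotyped HIV luciferase particles made in 293T cells, followed by 72 h culture and luciferase readout. Peptides were tested at 10 points, 3-fold, from 100 ug/ml; particles lacking envelope served as non-specific entry control.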

[1] = test system: amphotropic murine leukemia virus; experiment: AMLV pseudotyped virus entry counter-screen, same infection protocol; assay type: cell-based; details: for luciferase units, AMLV entry: duplicates
Protocol: Infection of hepatoma cell lines with HCV pseudotype particles and screen for inhibitory peptides. The hepatoma cells, Huh7, was seeded at 8000 cells in 90 ul medium in 96-well plate. In the case of the inhibitor screen, the inhibitor was incubated with cells for one hour at 37° C. and then 50 ul viral supernatant was added to the cells 24 hours after seeding. The viral stock was pre-tittered and diluted to yield approximately 10,000 to 20,000 RLU. The cells were incubated at 37° C. with 5% CO2 for additional 72 hours and were harvested for luciferase assay. Peptide stocks were prepared in 100% DMSO at 10 mg/ml and were first screened at 100 ug/ml and then a dose responsive curve was generated with 10 points 3-fold titration starting from 100 ug/ml.
The specificity of the peptides were counter-screened with AMLV and HIV pseudotyped viruses using the same infection protocol.

[2] = 0.1 nM of peptide (printed for three rows), two values per peptide and row
[3] = 0.3 nM of peptide, two values per peptide
[4] = 1 nM of peptide, two values per peptide
[5] = 3 nM of peptide, two values per peptide
[6] = 10 nM of peptide, two values per peptide
[7] = 0.01371742 uM of peptide (three lines)
[8] = 30 nM of peptide, two values per peptide
[9] = 100 nM of peptide, two values per peptide
[10] = 300 nM of peptide, two values per peptide
[11] = 10000 nM of peptide, two values per peptide
[12] = 0.1 nM of peptide (three lines), 0.0001 µM
[13] = 0.1 nM of peptide (three lines)

Substance: A-A-L-C-S-A-M-Y-V-G-D-L-C-G-S-V [SEQ ID NO: 14]
- HCVpp % inh (HCV pseudoparticles; peptide library screen, first screened at 100 ug/ml, cell entry inhibition vs uninhibited control): 39%
- AMLVpp % inh ([1]; peptide library screen, cell entry inhibition vs uninhibited control): −42%

Substance: A-I-K-W-E-Y-V-L-L-F-L-L-L [SEQ ID NO: 98]
- % control (HCVpp entry), proline scanning (HCV pseudoparticles; [2]): 85 % control and 77 % control and 86 % control and 109 % control and 95 % control
- % control (HCVpp entry), proline scanning (HCV pseudoparticles; [3]): 90 % control and 68 % control
- % control (HCVpp entry), proline scanning (HCV pseudoparticles; [4]): 93 % control and 94 % control
- % control (HCVpp entry), proline scanning (HCV pseudoparticles; [5]): 86 % control and 52 % control
- % control (HCVpp entry), proline scanning (HCV pseudoparticles; [6]): 47 % control and 50 % control
- luciferase units, HCV entry (HCV pseudoparticles; [7]): 9747 luciferase units and 12623 luciferase units and 16027 luciferase units and 17299 luciferase units and 19079 luciferase units and 17575 luciferase units
- % control (HCVpp entry), proline scanning (HCV pseudoparticles; [8]): 41 % control and 35 % control
- luciferase units, HCV entry (HCV pseudoparticles; 0.04115226 uM of peptide): 6486 luciferase units and 6677 luciferase units
- % control (HCVpp entry), proline scanning (HCV pseudoparticles; [9]): 31 % control and 41 % control
- luciferase units, HCV entry (HCV pseudoparticles; 0.1234568 uM of peptide): 4583 luciferase units and 6873 luciferase units
- % control (HCVpp entry), proline scanning (HCV pseudoparticles; [10]): 21 % control and 29 % control
- luciferase units, HCV entry (HCV pseudoparticles; 0.3703704 uM of peptide): 2830 luciferase units and 5272 luciferase units
- luciferase units, HCV entry (HCV pseudoparticles; 1.111111 uM of peptide): 3285 luciferase units and 2555 luciferase units
- luciferase units, HCV entry (HCV pseudoparticles; 3.333333 uM of peptide): 2647 luciferase units and 2056 luciferase units
- luciferase units, HCV entry (HCV pseudoparticles; 10 uM of peptide): 2186 luciferase units and 2352 luciferase units
- % control (HCVpp entry), proline scanning (HCV pseudoparticles; [11]): 27 % control and 24 % control
- luciferase units, HCV entry (HCV pseudoparticles; 30 uM of peptide): 1938 luciferase units and 2251 luciferase units
- % of control at ~30 uM (HCV pseudoparticles): 10%
- luciferase units, AMLV entry [1, 7]: 44492 luciferase units and 44531 luciferase units and 47406 luciferase units and 49869 luciferase units and 51067 luciferase units and 61382 luciferase units
- luciferase units, AMLV entry ([1]; 0.04115226 uM of peptide): 41463 luciferase units and 41610 luciferase units
- luciferase units, AMLV entry ([1]; 0.1234568 uM of peptide): 45455 luciferase units and 45030 luciferase units
- luciferase units, AMLV entry ([1]; 0.3703704 uM of peptide): 42748 luciferase units and 48710 luciferase units
- luciferase units, AMLV entry ([1]; 1.111111 uM of peptide): 45508 luciferase units and 44147 luciferase units
- luciferase units, AMLV entry ([1]; 3.333333 uM of peptide): 59984 luciferase units and 48300 luciferase units
- luciferase units, AMLV entry ([1]; 10 uM of peptide): 111324 luciferase units and 59835 luciferase units
- luciferase units, AMLV entry ([1]; 30 uM of peptide): 81103 luciferase units and 70832 luciferase units

Substance: A-I-K-W-E-Y-V-L-L-L-F-L-L [SEQ ID NO: 81]
- % control (HCVpp entry), glycine scanning (HCV pseudoparticles; 0.00003 uM of peptide, two values per peptide and row): 86 % control and 77 % control and 104 % control and 134 % control
- % control (HCVpp entry), glycine scanning (HCV pseudoparticles; 0.0001 uM of peptide, two values per peptide): 103 % control and 79 % control
- % control (HCVpp entry), glycine scanning (HCV pseudoparticles; 0.0003 uM of peptide, two values per peptide): 90 % control and 105 % control
- % control (HCVpp entry), glycine scanning (HCV pseudoparticles; 0.001 uM of peptide, two values per peptide): 94 % control and 114 % control
- % control (HCVpp entry), glycine scanning (HCV pseudoparticles; 0.003 uM of peptide, two values per peptide): 82 % control and 66 % control
- % control (HCVpp entry), glycine scanning (HCV pseudoparticles; 0.01 uM of peptide, two values per peptide): 70 % control and 71 % control
- % control (HCVpp entry), glycine scanning (HCV pseudoparticles; 0.03 uM of peptide, two values per peptide): 51 % control and 38 % control
- luciferase units, HCV entry (HCV pseudoparticles; 0.04115226 uM of peptide): 3138 luciferase units and 5487 luciferase units
- luciferase units, HCV entry (HCV pseudoparticles; 0.1234568 uM of peptide): 1665 luciferase units and 1759 luciferase units
- % control (HCVpp entry), glycine scanning (HCV pseudoparticles; 0.3 uM of peptide, two values per peptide): 39 % control and 31 % control
- luciferase units, HCV entry (HCV pseudoparticles; 0.3703704 uM of peptide): 2133 luciferase units and 2617 luciferase units
- luciferase units, HCV entry (HCV pseudoparticles; 1.111111 uM of peptide): 2065 luciferase units and 2449 luciferase units
- luciferase units, HCV entry (HCV pseudoparticles; 10 uM of peptide): 2584 luciferase units and 3853 luciferase units
- % control (HCVpp entry), glycine scanning (HCV pseudoparticles; 10 uM of peptide, two values per peptide): 22 % control and 34 % control
- luciferase units, HCV entry (HCV pseudoparticles; 30 uM of peptide): 990 luciferase units and 667 luciferase units
- % control (HCVpp entry), glycine scanning (HCV pseudoparticles; 30 uM of peptide, two values per peptide): 30 % control and 26 % control
- viral entry as a percentage of the uninhibited control (HCV pseudoparticles; [12]): 79% and 103% and 77% and 86% and 134% and 104%
- viral entry as a percentage of the uninhibited control (HCV pseudoparticles; 0.3 nM of peptide, 0.0003 µM): 105% and 90%
- viral entry as a percentage of the uninhibited control (HCV pseudoparticles; 1 nM of peptide, 0.001 µM): 114% and 94%
- viral entry as a percentage of the uninhibited control (HCV pseudoparticles; 3 nM of peptide, 0.003 µM): 66% and 82%
- viral entry as a percentage of the uninhibited control (HCV pseudoparticles; 10 nM of peptide, 0.01 µM): 71% and 70%
- viral entry as a percentage of the uninhibited control (HCV pseudoparticles; 30 nM of peptide, 0.03 µM): 38% and 51%
- viral entry as a percentage of the uninhibited control (HCV pseudoparticles; 300 nM of peptide, 0.3 µM): 31% and 39%
- viral entry as a percentage of the uninhibited control (HCV pseudoparticles; 10000 nM of peptide, 10 µM): 34% and 22%
- viral entry as a percentage of the uninhibited control (HCV pseudoparticles; 30000 nM of peptide, 30 µM): 26% and 30%
- % of control at ~30 uM (HCV pseudoparticles): 17%
- luciferase units, AMLV entry [1, 7]: 46029 luciferase units and 39655 luciferase units and 41740 luciferase units and 42548 luciferase units and 45150 luciferase units and 45203 luciferase units
- luciferase units, AMLV entry ([1]; 0.04115226 uM of peptide): 40104 luciferase units and 51496 luciferase units
- luciferase units, AMLV entry ([1]; 0.1234568 uM of peptide): 51789 luciferase units and 49401 luciferase units
- luciferase units, AMLV entry ([1]; 0.3703704 uM of peptide): 48861 luciferase units and 55221 luciferase units
- luciferase units, AMLV entry ([1]; 1.111111 uM of peptide): 54439 luciferase units and 53032 luciferase units
- luciferase units, AMLV entry ([1]; 3.333333 uM of peptide): 62658 luciferase units and 51388 luciferase units
- luciferase units, AMLV entry ([1]; 30 uM of peptide): 86600 luciferase units and 64937 luciferase units

Substance: LLFLLLVYEWKIA [retro-inverso]
- viral entry as a percentage of the uninhibited control (HCV pseudoparticles; [13]): 97%
- viral entry as a percentage of the uninhibited control (HCV pseudoparticles; 0.3 nM of peptide, 0.0003 µM): 91% and 81% and 74% and 99% and 126% and 117%
- viral entry as a percentage of the uninhibited control (HCV pseudoparticles; 1 nM of peptide, 0.001 µM): 83% and 72% and 91% and 115% and 106%
- viral entry as a percentage of the uninhibited control (HCV pseudoparticles; 3 nM of peptide, 0.003 µM): 88% and 68% and 78% and 92% and 86% and 98%
- viral entry as a percentage of the uninhibited control (HCV pseudoparticles; 10 nM of peptide, 0.01 µM): 66% and 100% and 76% and 84% and 128% and 104%
- viral entry as a percentage of the uninhibited control (HCV pseudoparticles; 30 nM of peptide, 0.03 µM): 68% and 62% and 76% and 113% and 121% and 110%
- viral entry as a percentage of the uninhibited control (HCV pseudoparticles; 30000 nM of peptide, 30 µM): 107% and 87% and 103% and 125% and 95%
- activity compared to the wild type 13-mer peptide (HCV pseudoparticles): completely lost activity

Substance: LLFLLLVYEWKIA [retro]
- viral entry as a percentage of the uninhibited control (HCV pseudoparticles; [13]): 90%
- viral entry as a percentage of the uninhibited control (HCV pseudoparticles; [12]): 107%
- viral entry as a percentage of the uninhibited control (HCV pseudoparticles; 0.3 nM of peptide, 0.0003 µM): 88% and 98% and 86% and 95% and 91%
- viral entry as a percentage of the uninhibited control (HCV pseudoparticles; 1 nM of peptide, 0.001 µM): 94% and 86% and 97% and 81% and 51% and 88%
- viral entry as a percentage of the uninhibited control (HCV pseudoparticles; 3 nM of peptide, 0.003 µM): 62% and 99% and 121% and 76% and 77% and 66%
- viral entry as a percentage of the uninhibited control (HCV pseudoparticles; 10 nM of peptide, 0.01 µM): 52% and 95% and 93% and 81% and 68% and 77%
- viral entry as a percentage of the uninhibited control (HCV pseudoparticles; 100 nM of peptide, 0.1 µM): 72% and 101% and 79% and 99% and 65% and 62%
- viral entry as a percentage of the uninhibited control (HCV pseudoparticles; 30000 nM of peptide, 30 µM): 104% and 110% and 73% and 90% and 96% and 80%
- activity compared to the wild type 13-mer peptide (HCV pseudoparticles): completely lost activity

Substance: P-I-K-W-E-Y-V-L-L-L-F-L-L [SEQ ID NO: 99]
- % control (HCVpp entry), proline scanning (HCV pseudoparticles; [2]): 64 % control and 84 % control and 108 % control and 70 % control and 101 % control and 121 % control
- % control (HCVpp entry), proline scanning (HCV pseudoparticles; [3]): 84 % control and 80 % control
- % control (HCVpp entry), proline scanning (HCV pseudoparticles; [4]): 75 % control and 89 % control
- % control (HCVpp entry), proline scanning (HCV pseudoparticles; [5]): 68 % control and 56 % control
- % control (HCVpp entry), proline scanning (HCV pseudoparticles; [6]): 45 % control and 53 % control
- % control (HCVpp entry), proline scanning (HCV pseudoparticles; [8]): 28 % control and 36 % control
- % control (HCVpp entry), proline scanning (HCV pseudoparticles; [9]): 21 % control and 34 % control
- % control (HCVpp entry), proline scanning (HCV pseudoparticles; [10]): 21 % control and 29 % control
- % control (HCVpp entry), proline scanning (HCV pseudoparticles; [11]): 24 % control and 16 % control
- % of control at ~30 uM (HCV pseudoparticles): 21%

Substance: S-F-A-I-K-W-E-Y-V-L-L-L-F-L-L [SEQ ID NO: 104]
- HCVpp % inh (HCV pseudoparticles; truncated peptides tested at 50 uM in 1% DMSO): 91%
